Data reported in PMC12616683, “In Vivo Atlas of Neuroprotective Cyclic Dipeptides Derived from Food Gelatin Using Peptidomics and Feature-Based Molecular Networking” (Journal of Agricultural and Food Chemistry, 2025).
Square brackets hold non-standard residues; d marks the D form. Peptide text beside a SMILES is read from it. pGlu = O=C1CC[CH](C(=O)O)N1

Assay: FBMN analysis of short peptides in small intestine contents and serum after oral DHG
Conditions: for time detected in serum (FBMN): time points 0.5-4 h after oral DHG; for Peptide signal (feature intensity) in the small intestine, 30 min / Peptide signal (feature intensity) in the small intestine, 60 min / Peptide signal (feature intensity) in the small intestine, 120 min / Peptide signal (feature intensity) in the small intestine, 240 min: small intestine contents, C57 mice, FBMN feature intensity, peptides smaller than 690 Da; for Peptide signal (feature intensity) in the small intestine, 30 min: 30 min after oral DHG; for Peptide signal (feature intensity) in the small intestine, 60 min: 60 min after oral DHG; for Peptide signal (feature intensity) in the small intestine, 120 min: 120 min after oral DHG; for Peptide signal (feature intensity) in the small intestine, 240 min: 240 min after oral DHG

Row | SMILES | time detected in serum (FBMN) | Peptide signal (feature intensity) in the small intestine, 30 min | Peptide signal (feature intensity) in the small intestine, 60 min | Peptide signal (feature intensity) in the small intestine, 120 min | Peptide signal (feature intensity) in the small intestine, 240 min
1 | CCC(C)C(NC(=O)C1CCC(=O)N1)C(=O)O (centres unmarked) [PyroGlu-Ile] ([pGlu]-Ile-OH; configuration not given here) | only detected in the first hour | 7.74E+05 | 1.17E+06 | 5.33E+05 | 0.00E+00
2 | CSCCC(NC(=O)C1CCC(=O)N1)C(=O)O (centres unmarked) [PyroGlu-Met] ([pGlu]-Met-OH; configuration not given here) | – | 4.70E+06 | 5.95E+06 | 0.00E+00 | 0.00E+00
3 | O=C1CCC(C(=O)NC(Cc2ccccc2)C(=O)O)N1 (centres unmarked) [PyroGlu-Phe] | only detected in the first hour | 0.00E+00 | 1.13E+07 | 0.00E+00 | 5.69E+06
4 | O=C1CCC(C(=O)N2CCCC2C(=O)O)N1 (centres unmarked) [PyroGlu-Pro] ([pGlu]-Pro-OH; configuration not given here) | – | 0.00E+00 | 1.75E+07 | 0.00E+00 | 1.91E+07
5 | O=C1CCC(C(=O)NC(Cc2ccc(O)cc2)C(=O)O)N1 (centres unmarked) [PyroGlu-Tyr] ([pGlu]-Tyr-OH; configuration not given here) | – | 0.00E+00 | 2.55E+07 | 0.00E+00 | 1.33E+07
6 | CC(C)[C@H](NC(=O)[C@@H]1CCC(=O)N1)C(=O)O [PyroGlu-Val] (HELM PEPTIDE1{[Glp].V}$$$$V2.0) | – | 0.00E+00 | 7.64E+06 | 0.00E+00 | 1.03E+07
7 | CC(C)C[C@H](NC(=O)[C@@H](N)CO)C(=O)N[C@@H](CCCCN)C(=O)O [Ser-Leu-Lys] (H-Ser-Leu-Lys-OH) | – | 8.94E+05 | 6.69E+05 | 1.60E+06 | 4.59E+06
8 | CC(C)CC(NC(=O)C(N)CO)C(=O)O (stereo not drawn) [Ser-Leu] (H-Ser-Leu-OH; configuration not given here) | – | 0.00E+00 | 1.15E+07 | 0.00E+00 | 1.59E+07
9 | N[C@@H](CO)C(=O)N[C@@H](Cc1ccccc1)C(=O)O [Ser-Phe] | – | 0.00E+00 | 1.38E+06 | 0.00E+00 | 4.01E+05
10 | CC(C)[C@H](NC(=O)[C@@H](N)CO)C(=O)O [Ser-Val] (H-Ser-Val-OH) | – | 0.00E+00 | 5.23E+06 | 0.00E+00 | 2.48E+07
11 | CC(C)C[C@H](NC(=O)[C@@H](N)[C@@H](C)O)C(=O)O [Thr-Leu] (H-Thr-Leu-OH) | – | 0.00E+00 | 4.45E+06 | 0.00E+00 | 8.43E+06
12 | CC(C)CC(NC(=O)C(NC(=O)C(N)C(C)O)C(C)C)C(=O)O (stereo not drawn) [Thr-Val-Leu] (H-Thr-Val-Leu-OH; configuration not given here) | – | 5.29E+05 | 1.54E+05 | 0.00E+00 | 1.07E+06
13 | Cc1cn([C@H]2C[C@H](O)[C@@H](CO)O2)c(=O)[nH]c1=O [Thymidine] | – | 6.40E+05 | 1.66E+05 | 0.00E+00 | 0.00E+00
14 | N[C@@H](Cc1c[nH]c2ccccc12)C(=O)N[C@@H](CCC(=O)O)C(=O)O [Trp-Glu] (H-Trp-Glu-OH) | – | 0.00E+00 | 0.00E+00 | 0.00E+00 | 1.26E+07
15 | CSCC[C@H](NC(=O)[C@@H](N)Cc1c[nH]c2ccccc12)C(=O)O [Trp-Met] (H-Trp-Met-OH) | – | 0.00E+00 | 0.00E+00 | 0.00E+00 | 1.16E+06
16 | N[C@@H](Cc1c[nH]c2ccccc12)C(=O)NCC(=O)O [Trp-gly] (H-Trp-Gly-OH) | – | 0.00E+00 | 0.00E+00 | 0.00E+00 | 6.50E+05
17 | CC(C)CC(NC(=O)C(N)Cc1ccc(O)cc1)C(=O)O (stereo not drawn) [Tyr-Leu] (H-Tyr-Leu-OH; configuration not given here) | – | 2.28E+06 | 2.16E+06 | 0.00E+00 | 0.00E+00
18 | NC(Cc1ccc(O)cc1)C(=O)NC(Cc1ccc(O)cc1)C(=O)O (stereo not drawn) [Tyr-Tyr] (H-Tyr-Tyr-OH; configuration not given here) | – | 2.40E+05 | 1.86E+06 | 0.00E+00 | 0.00E+00
